The test system of data set [1] is zebrafish. The experiment in a line: Optovin-response suppression assay (pain-related). As to conditions: in words; relative to concentrations that caused eASRs.
From the text: To determine if any of the hit compounds may be analgesic, we used optovin-induced motor activity as a potential analgesia-related assay.
For data set [2], the system named is zebrafish. Type of data set: in vivo. The procedure: Behavioral assays for pERK. Animals were treated with DMSO or drug for one hour then exposed to a low-volume acoustic stimulus every 10 seconds for 10 minutes. Optovin-treated animals were stimulated with violet light for one second every 10 seconds for 10 minutes. Videos were recorded to measure response to the stimulus and quantified by motion index (MI). […]

The test system of data set [3] is human GABAARs (α1β2 and α1β2γ2). Type of data set: cell-based.
Data set [4] deals with zebrafish. Type of data set: in vivo. The following applies: for rescue of behavioral phenotypes by pretreatment with the GABAAR antagonist PTX: violet light and eASR phenotypes, in words.
For data set [5], the system named is zebrafish. The experiment in a line: Cortisol detection assay. The following applies: 7-day old larvae treated 1 h; in words. Type of data set: in vivo. Here is the method:
Cortisol levels were measured in zebrafish. Briefly, 15, 7-day old larvae were treated with the indicated compounds for 1 h. Larvae were anesthetized in ice-cold egg water and then snap-froze in an ethanol/dry ice bath. Larvae were then homogenized in 100 μL of water. Cortisol was extracted from the homogenate with 1 mL of ethyl acetate, the resulting supernatant was collected and the solvent allowed to evaporate. Cortisol was dissolved in 0.2% bovine serum albumin (A7030, Sigma) and frozen at −20 °C. For cortisol ELISA experiments, 96-well plates (VWR International) were treated with cortisol antibody (P01-92-94M-P, EastCoast Bio; […] in PBS) for 16 h at 4 °C, washed, and blocked with 0.1% BSA in PBS. Cortisol samples and cortisol-HRP (P91-92-91H, EastCoast Bio) were incubated at room temperature for 2 h and washed extensively with PBS containing 0.05% Tween-20 (Invitrogen). Detection of HRP was performed using tetramethylbenzidine (TMB: 22166-1, Biomol) and Tetrabutylammonium borohydride (TBABH: 230170-10 G, Sigma). Reaction was stopped using 1 M H2SO4. Absorbance was read at 450 nm in an ELISA plate reader (SpectraMax MS, Molecular Devices).

The test system of data set [6] is adult zebrafish. Description: Behavioral responses of adult zebrafish. The following applies: in words.
The target of data set [7] is dopamine transporter (Homo sapiens, UniProt Q01959). The experiment in a line: In vitro receptor binding (NIMH PDSP). An excerpt: (§1) A second approach to target identification was to test the binding affinity of hit compounds against a panel of 43 human and rodent neurotransmitter-related targets. […]. Several hit compounds bound to multiple targets, including compound 7145248, which bound to TSPO, the benzodiazepine receptor (BZP), dopamine transporter, and the alpha 2b receptor (Fig. 3d). The most common targets (binding > 5 compounds) included BZP, sigma 2, HTR2A/B/C, HTR6, and TSPO (Fig. 3c, d). TSPO, previously known as the peripheral benzodiazepine receptor (PBR) (because it was originally identified as a binding site for benzodiazepine anxiolytic drugs), is a mitochondrial protein that supplies cholesterol to steroid-producing enzymes in the brain[36]. TSPO ligands are thought to enhance GABAergic signaling by increasing neurosteroid production. However, some TSPO ligands, including benzodiazepines and zolpidem, also bind to GABAARs directly. […] Of the 14 compounds that bound to TSPO in vitro, 5 compounds potentiated GABAAR in FLIPR assays (Fig. 3c; 2f, green arrowheads).
(§2) In vitro binding assays and Ki data were generated by the National Institute of Mental Health’s Psychoactive Drug Screening Program (PDSP), contract no. HHSN-271-2008-00025-C (NIMH PDSP), for assay details: http://pdsp.med.unc.edu/PDSP%20Protocols%20II%202013-03-28.pdf. Normalized Ki (npKi) values were generated as follows: npKi = 4 + (−log10 (Ki))[64].

For data set [8], the target named is TSPO (Rattus norvegicus, UniProt P16257). The experiment in a line: In vitro receptor binding (NIMH PDSP).
From the text: as §1, §2

The target of data set [9] is benzodiazepine receptor (BZP). The experiment in a line: In vitro receptor binding (NIMH PDSP). As to conditions: in words; binding counted at Ki < 10 μM.
From the text: as §1, §2

For data set [10], the target named is T1, alpha 2b receptor (Homo sapiens, UniProt P18089).
T1 sequence (P18089 1-450): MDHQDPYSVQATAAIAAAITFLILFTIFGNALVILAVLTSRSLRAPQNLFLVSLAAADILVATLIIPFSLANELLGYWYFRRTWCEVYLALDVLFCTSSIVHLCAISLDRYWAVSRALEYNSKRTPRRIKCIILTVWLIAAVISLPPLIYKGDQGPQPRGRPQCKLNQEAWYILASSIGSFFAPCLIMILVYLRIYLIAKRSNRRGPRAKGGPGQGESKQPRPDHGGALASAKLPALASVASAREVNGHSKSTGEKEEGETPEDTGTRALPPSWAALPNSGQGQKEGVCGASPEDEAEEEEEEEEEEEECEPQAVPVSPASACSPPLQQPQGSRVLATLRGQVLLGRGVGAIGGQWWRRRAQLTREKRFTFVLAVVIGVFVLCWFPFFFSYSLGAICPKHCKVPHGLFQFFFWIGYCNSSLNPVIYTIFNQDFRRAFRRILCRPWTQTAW
Description: In vitro receptor binding (NIMH PDSP). As to conditions: in words; binding counted at Ki < 10 μM.
From the text: as §1, §2

Data set [11] has as its system zebrafish. The experiment in a line: Viability of anesthetic treated animals. Type of data set: in vivo. As to conditions: for toxicity at the concentrations that caused eASRs: zebrafish, in vivo; for alive/total 10 min: 10 minutes post treatment; for alive/total 1 hour: 1 hour post treatment; for alive/total 5 hours: 5 hours post treatment. The procedure: Behavioral assays for pERK. Animals were treated with DMSO or drug for one hour then exposed to a low-volume acoustic stimulus every 10 seconds for 10 minutes. Optovin-treated animals were stimulated with violet light for one second every 10 seconds for 10 minutes. Videos were recorded to measure response to the stimulus and quantified by motion index (MI). Animals were immediately […]
High speed imaging. Digital video was recorded at 500-1000 frames per second using an Integrated Design Tools NX5-S1 digital camera. Assay duration was 500-1000 ms. Low amplitude tap stimuli was delivered as described above. Videos and still images were assembled using Fiji (imageJ) and […]
RNAscope. Zebrafish (6 dpf) were fixed using 10% normal buffered formaldehyde overnight at 4 °C, dehydrated in 100% methanol and stored at -20 °C until the assay was performed. Fluorescent in situ hybridization was performed using the RNAScope kit (Advanced Cell Diagnostics)4 with the following modifications: target retrieval was performed using 150 mM Tris pH 9.5 for 15 minutes at 70 °C, washes were performed using 0.2x SSCT (0.01% Tween-20, […], 0.3mM TriNa-citrate, pH7), samples were stored overnight after probe hybridization and 2x 5 minute washes in 5x SSC ([…], pH7) at room temperature before amplification and detection steps were performed the following day.
Viability. Animals were scored manually to determine viability after anesthetic treatments. 100 animals were scored per condition at 10 minutes, 1 hour and 5 hours post treatment. Strong heart rate was observed under a dissecting scope (Leica M-80) for our viability score. […]
rdkit function FingerprintMols package written for python. Tanimoto similarity function was used with a […]

[12] abbreviates: compound at 20 uM then 5 uM GABA, DMSO = 1.
Where [13] appears, read: larvae, low-volume acoustic stimulus.
[14] abbreviates: compound at 20 uM then 5 uM GABA, Positive/Negative.

Data on 9 molecules can be found in publication PMC6733874, “Zebrafish behavioural profiling identifies GABA and serotonin receptor ligands related to sedation and paradoxical excitation” (Nature Communications, 2019).

The structures appear in SMILES notation. “Also recorded” adds a separate entry of the source. Like-named read-outs stand apart in the source and are kept apart here.

Sequence of dopamine transporter (Q01959 whole entry): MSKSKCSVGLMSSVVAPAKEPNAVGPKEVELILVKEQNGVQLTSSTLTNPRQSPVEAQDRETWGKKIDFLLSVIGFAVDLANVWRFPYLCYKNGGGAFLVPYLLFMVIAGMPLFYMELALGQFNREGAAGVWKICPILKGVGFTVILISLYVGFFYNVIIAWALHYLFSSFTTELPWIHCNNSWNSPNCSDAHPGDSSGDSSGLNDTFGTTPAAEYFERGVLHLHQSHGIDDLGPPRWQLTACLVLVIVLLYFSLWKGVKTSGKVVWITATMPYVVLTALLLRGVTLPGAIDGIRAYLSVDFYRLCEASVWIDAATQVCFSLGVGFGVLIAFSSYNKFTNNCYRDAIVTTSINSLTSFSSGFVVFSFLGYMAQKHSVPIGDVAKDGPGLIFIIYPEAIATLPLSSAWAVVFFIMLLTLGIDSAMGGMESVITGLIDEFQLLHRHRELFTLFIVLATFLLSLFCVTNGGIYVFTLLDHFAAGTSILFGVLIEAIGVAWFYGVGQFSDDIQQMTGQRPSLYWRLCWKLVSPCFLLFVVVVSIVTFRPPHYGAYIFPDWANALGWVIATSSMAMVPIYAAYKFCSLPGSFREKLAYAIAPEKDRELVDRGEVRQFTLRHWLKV
Sequence of TSPO (P16257 whole entry): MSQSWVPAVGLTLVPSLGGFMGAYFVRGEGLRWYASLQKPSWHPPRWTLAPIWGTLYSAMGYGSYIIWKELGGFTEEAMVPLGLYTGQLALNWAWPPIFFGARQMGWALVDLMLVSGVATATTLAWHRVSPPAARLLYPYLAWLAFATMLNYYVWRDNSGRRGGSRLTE

As for `COc1ccc2[nH]c(-c3ccccc3)c(CCN(C)C)c2c1` [BGC 20-761], the “optovin response (optovin-induced motor activity)” value (from here on “optovin response”) in data set [1] was “blocked the optovin response”. In data set [2] (in words), the “pERK labeling (neuronal activity)” value is “reduced neuronal activity throughout most of the brain and increased activity in the caudal hindbrain neuron cluster”. Further, the “Ave Norm FLIPR Score” value in data set [3] (setting [12]) was 1.189. Further, the “GABAAR PAM activity in FLIPR, in words” value in data set [3] (in the presence of GABA) is on record as “PAM activity was not observed”. Also, in data set [4] (setting [13]), the “enhanced acoustic startle response (eASR) phenotype, in words” value (“enhanced acoustic startle response” for short) is recorded as “reproducibly caused eASRs in vivo”. In addition, the “rescue of behavioral phenotypes by pretreatment with the GABAAR antagonist PTX” value (“rescue of behavioral phenotypes” for short) in [4] is reported as “partially rescued”. This molecule also showed a Phenoscore in data set [4] (zebrafish, in vivo) of 0.74.

As to `CCOC(=O)c1cccn1[C@H](C)c1ccccc1` [carboetomidate], in [4] (average phenoscore at highest scoring treatment), the phenoscore category entry is given as “intermediate (intermediate phenoscores (0.51 < x < 0.71))”. Besides, the “enhanced acoustic startle response” value in [4] (setting [13]) was “immobilized zebrafish and caused eASRs”. Moreover, in [5], the cortisol levels result is listed as “did not”.

As for `CCOC(=O)c1c(C)nc(-c2ccccc2)nc1NC(=O)Cc1ccccc1` [compound 5951201], the cortisol levels result in data set [5] is reported as “None of these compounds reduced cortisol levels”.

On to `COc1ccc(OC)c(NS(=O)(=O)c2ccc(OC)c(Br)c2)c1` [compound 6029941], for which the “Ave Norm FLIPR Score” value in [3] (setting [12]) was determined as 14.01. In [3] (setting [14]), the “FLIPR Results” value is “Positive”. Further, in [4], the “rescue of behavioral phenotypes” value is given as “partially rescued”. Further, in data set [5], the cortisol levels result was “None of these compounds reduced cortisol levels”.

For the molecule `O=S(=O)(Nc1cccc(Br)c1)c1ccc2c(c1)OCCO2` [compound 6225936], the “optovin response” value in data set [1] is “only reduced the optovin response at concentrations that also reduced eASRs”. Besides, the “Ave Norm FLIPR Score” value in data set [3] (setting [12]) was -14.7. Moreover, the cortisol levels result in data set [5] is on record as “None of these compounds reduced cortisol levels”.

Turning to `CCc1cc2c(=O)c(-c3ccccc3Cl)c(C)oc2cc1OC` [compound 7013338], the “optovin response” value in data set [1] is given as “did not suppress the optovin response”. The “FLIPR Results” value in data set [3] (setting [14]) is “Positive”. Moreover, the “GABAAR PAM activity in FLIPR, in words” value in [3] (in the presence of GABA) is recorded as “potentiated GABAARs significantly greater than positive controls; also recorded: significantly greater than the positive controls; also recorded: the most effective hit compound in the FLIPR assays; also recorded: activated human GABAARs more than any other hit compound”. The phenocopy entry in [4] ([…], positive/negative) was “positive”. Also, the “rescue of behavioral phenotypes” value in data set [4] is reported as “partially rescued”. The “violet light response and acoustic startle in adult animals” value in [6] is “reducing the violet light response, while increasing acoustic startle”.

On to `O=C(NCc1cccc(Oc2ccccc2)c1)C(=O)c1c[nH]c2ccccc12` [compound 7145248], for which the binding result in data set [7], in data set [8], in [9] and in data set [10] was “bound” in each case. Further, the “Ave Norm FLIPR Score” value in [3] (setting [12]) was -24.79.

Turning to `CCOC(=O)c1cncn1[C@H](C)c1ccccc1` [etomidate], the “optovin response” value in [1] is on record as “suppressed the optovin response”. For the same molecule, the “pERK labeling (neuronal activity)” value in data set [2] (in words) was “broadly reduced”. The “pERK labeling in the caudal hindbrain at higher concentration” value in data set [2] (zebrafish, in vivo) is “decreased pERK labeling in the caudal hindbrain”. In addition, in data set [3] (setting [12]), the “Ave Norm FLIPR Score” value amounted to 50.67. Moreover, in [3] (setting [14]), the “FLIPR Results” value is recorded as “Positive”. Besides, the “GABAAR PAM activity in FLIPR, in words” value in [3] (in the presence of GABA) is recorded as “increased fluorescence in the presence of GABA”. For the same molecule, the “toxicity at the concentrations that caused eASRs” value in data set [11] was “Neither etomidate or propofol was toxic”. Also, the “eASRs at higher concentration” value in [4] (50 µM compared to 6 µM) is on record as “suppressed eASRs”. Besides, in data set [4] (etomidate 6.5 uM, versus DMSO 0.2), the “Average phenoscore of etomidate-treated positive controls” value was found to be 0.71. The “percent animals responding (startle frequency)” value in [4] (etomidate 6.25 µΜ, dampened solenoid stimulus, 100 animals, controls 2%) is 85%. Further, in data set [4], the “rescue of behavioral phenotypes” value is reported as “rescued”. Further, the cortisol levels entry in data set [5] is “lowered cortisol levels”. Besides, in data set [6], the “violet light response and acoustic startle in adult animals” value was “reducing the violet light response, while increasing acoustic startle”.

On to `CC(C)c1cccc(C(C)C)c1O` [propofol], for which, in data set [2] (zebrafish, in vivo), the “pERK labeling (neuronal activity)” value was “broadly reduced”. Moreover, in data set [3], the “Ave Norm FLIPR Score” value was 34.52; the “FLIPR Results” value is given as “Positive”; the “GABAAR PAM activity in FLIPR, in words” value is reported as “increased fluorescence in the presence of GABA”. Further, in data set [11] (3 µM), the “alive/total 10 min” value is reported as 100/100, the “alive/total 1 hour” value was 100/100 and the “alive/total 5 hours” value is on record as 100/100. In data set [11] (6 µM), the “alive/total 10 min” value is listed as 100/100, the “alive/total 1 hour” value was 100/100 and the “alive/total 5 hours” value was 100/100. Also, in data set [11] (12 µM), the “alive/total 10 min” value is 100/100, the “alive/total 1 hour” value is listed as 100/100 and the “alive/total 5 hours” value is recorded as 99/100. The “toxicity at the concentrations that caused eASRs” value in data set [11] was “Neither etomidate or propofol was toxic”. Besides, the “enhanced acoustic startle response” value in data set [4] (zebrafish, in vivo) was “caused enhanced acoustic startle responses”.
